Test systems include HCT-15; HOP-62; HT-29; Hs-578T; IGROV-1; K562; MDA-MB-231; NCI-H226; NCI-H23; OVCAR-3; OVCAR-4; OVCAR-5; OVCAR-8; PC-3; SF-539; SK-MEL-2; SNB-19; TK-10; UACC-257.
Common to all, as to assay: inhibition of tumour cell growth, NCI panel, 48 h

Each structure is given as a SMILES string.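 96-well plates; 48 h exposure; 5 concentrations. Endpoints by linear interpolation between flanking doses. Not reached: highest tested concentration assigned. GI50 marks 50% less growth.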 Active and inactive are the calls of the source. No stated cut-off is given here; in the data, active = GI50 up to about 1.1 µM and inactive = higher.

Regarding `O=c1c2ccccc2sc2c(CO)ccc(NCCN3CCCCC3)c12`, the GI50 was 3.56 µM in the assay with HCT-15; 3.24 µM (inactive) in the assay on HOP-62; 2.94 µM (inactive) in the assay on HT-29; 4.38 µM (inactive) with Hs-578T; 3.93 µM (inactive) in the assay on IGROV-1; 2 µM (inactive) in the assay on K562. For the same molecule, the GI50 with MDA-MB-231 was 5.48 µM (inactive); in the assay on NCI-H226, 2.85 µM (inactive); in the assay with NCI-H23, 2.96 µM (inactive); with OVCAR-3, 2.22 µM (inactive); in the assay with OVCAR-4, 2.48 µM (inactive); with OVCAR-5 it was 6.35 µM (inactive). Further, the GI50 with OVCAR-8 was 3.56 µM (inactive); with PC-3 it was 4.31 µM (inactive); with SF-539, 5 µM (inactive); in the assay on SK-MEL-2, 4.47 µM (inactive); with SNB-19, 4.73 µM (inactive); in the assay on TK-10, 3.48 µM (inactive). In addition, in the assay on UACC-257, the GI50 is 2.07 µM (inactive).

For the molecule `CCOP(=O)(OCC)C(Nc1ccc(F)cc1)c1ccccc1` (centres undefined), the GI50 is greater than 100 µM in the assay on HCT-15; > 100 µM (inactive) with HOP-62; > 100 µM (inactive) with HT-29; > 100 µM (inactive) in the assay on Hs-578T; > 100 µM (inactive) in the assay with IGROV-1; 57.9 µM (inactive) in the assay on K562. Moreover, the GI50 with MDA-MB-231, with NCI-H226, in the assay with NCI-H23, with OVCAR-3, in the assay with OVCAR-4 and in the assay on OVCAR-5 was > 100 µM (inactive) throughout. Also, the GI50 is > 100 µM (inactive) in the assay on OVCAR-8; 32 µM (inactive) in the assay with PC-3; > 100 µM (inactive) in the assay on SF-539; > 100 µM (inactive) in the assay on SK-MEL-2; > 100 µM (inactive) in the assay on SNB-19; > 100 µM (inactive) in the assay with TK-10. In addition, the GI50 in the assay on UACC-257 is > 100 µM (inactive).

Regarding `CC(=O)O[C@@H](c1nccn1Cc1ccccc1)[C@H]1OC(C)(C)O[C@@H]1[C@H]1COC(C)(C)O1`, the GI50 in the assay on HCT-15 was greater than 100 µM; in the assay with HOP-62, > 100 µM (inactive); in the assay with HT-29 it was > 100 µM (inactive); with Hs-578T, > 100 µM (inactive); with IGROV-1 it was > 100 µM (inactive); in the assay on K562, > 100 µM (inactive). Further, the GI50 in the assay with MDA-MB-231, with NCI-H226, with NCI-H23, with OVCAR-3, in the assay on OVCAR-4 and in the assay on OVCAR-5 was > 100 µM (inactive) each time. In addition, the GI50 in the assay with OVCAR-8, with PC-3, with SF-539, in the assay on SK-MEL-2, in the assay on TK-10 and in the assay on UACC-257 was > 100 µM (inactive) each time.

In the case of `C=CC(C)(C)c1cc([C@@H]2COc3cc(O)ccc3C2=O)c(O)c(OC)c1OC`, the GI50 in the assay on HCT-15 is 14 µM; in the assay with HT-29, 20.5 µM (inactive); in the assay on Hs-578T it was 16.4 µM (inactive); in the assay on K562 it was 9.66 µM (inactive); with MDA-MB-231, 13.5 µM (inactive); in the assay on NCI-H226 it was 16.5 µM (inactive). Further, the GI50 in the assay on NCI-H23 is 10.4 µM (inactive); with OVCAR-3 it was 10.5 µM (inactive); in the assay on OVCAR-4, 3.94 µM (inactive); with OVCAR-5 it was 17.1 µM (inactive); with OVCAR-8, 17.3 µM (inactive); with PC-3 it was 12.9 µM (inactive). The GI50 in the assay on SF-539 was 18.8 µM (inactive); in the assay with SK-MEL-2, 15.9 µM (inactive); in the assay with SNB-19, 13.5 µM (inactive); with TK-10 it was 27.9 µM (inactive); with UACC-257, 13 µM (inactive).

Turning to `CN1CCN(Cn2nc(COc3ccccc3Cl)n(/N=C/c3ccc(-c4ccc(Cl)cc4Cl)o3)c2=S)CC1`, the GI50 in the assay on HCT-15 is 24.2 µM; in the assay with HOP-62, 21.4 µM (inactive); in the assay with HT-29, 19.5 µM (inactive); with Hs-578T, 84.1 µM (inactive); in the assay with IGROV-1, 28 µM (inactive); with K562, 21.3 µM (inactive). Also, the GI50 in the assay on MDA-MB-231 was 26.4 µM (inactive); in the assay with NCI-H226 it was 51.5 µM (inactive); with NCI-H23, 17.9 µM (inactive); in the assay on OVCAR-3, 21.7 µM (inactive); in the assay with OVCAR-4, 20 µM (inactive); in the assay on OVCAR-5, 35.6 µM (inactive). The GI50 in the assay with OVCAR-8 is 27 µM (inactive); with PC-3 it was 23.8 µM (inactive); with SF-539 it was 27 µM (inactive); in the assay on SK-MEL-2 it was 22.4 µM (inactive); in the assay with TK-10, 23.9 µM (inactive); in the assay on UACC-257, 34.8 µM (inactive).

For `CCOc1nnnc2[nH]cnc12`, the GI50 in the assay on HCT-15 is greater than 100 µM; in the assay with HOP-62, > 100 µM (inactive); with HT-29 it was > 100 µM (inactive); in the assay with Hs-578T, > 100 µM (inactive); with IGROV-1, > 100 µM (inactive); in the assay on MDA-MB-231, > 100 µM (inactive). Moreover, the GI50 in the assay on NCI-H226, with NCI-H23, in the assay on OVCAR-3, in the assay on OVCAR-4, in the assay on OVCAR-5 and in the assay with OVCAR-8 was > 100 µM (inactive) each time. The GI50 in the assay on PC-3, in the assay with SF-539, in the assay with SK-MEL-2, in the assay with TK-10 and with UACC-257 was > 100 µM (inactive) in each case.

`COc1ccc2c(c1C)C(=O)C(O)(CC=C(C)C)O2` (centres undefined): the GI50 is greater than 100 µM in the assay with HCT-15; > 100 µM (inactive) with HOP-62; > 100 µM (inactive) in the assay on HT-29; > 100 µM (inactive) in the assay on Hs-578T; > 100 µM (inactive) in the assay with IGROV-1; > 100 µM (inactive) in the assay with K562. For the same molecule, the GI50 in the assay with MDA-MB-231, in the assay on NCI-H226, with NCI-H23, with OVCAR-3, in the assay on OVCAR-5 and with OVCAR-8 was > 100 µM (inactive) each time. The GI50 with PC-3 is 62.8 µM (inactive); in the assay on SF-539, > 100 µM (inactive); with SK-MEL-2 it was > 100 µM (inactive); in the assay with SNB-19, > 100 µM (inactive); in the assay with TK-10, > 100 µM (inactive); in the assay with UACC-257, > 100 µM (inactive).

Regarding `O=C(/C(=N\Nc1ccc([N+](=O)[O-])cc1[N+](=O)[O-])NC12CC3CC(CC(C3)C1)C2)C(Br)C(=O)c1ccccc1` (centres undefined), the GI50 is 4.99 µM in the assay on HCT-15; 2.74 µM (inactive) in the assay with HOP-62; 4.45 µM (inactive) in the assay with HT-29; 4.67 µM (inactive) with Hs-578T; 6.67 µM (inactive) in the assay on IGROV-1; 2.8 µM (inactive) in the assay on K562. For the same molecule, the GI50 with MDA-MB-231 is 2.27 µM (inactive); in the assay with NCI-H226, 2.52 µM (inactive); in the assay with NCI-H23 it was 3.33 µM (inactive); in the assay with OVCAR-3 it was 2.54 µM (inactive); in the assay with OVCAR-4 it was 2.77 µM (inactive); with OVCAR-5, 5.4 µM (inactive). Further, the GI50 with OVCAR-8 was 3.48 µM (inactive); in the assay on PC-3 it was 2.61 µM (inactive); in the assay with SF-539, 3.31 µM (inactive); with SK-MEL-2, 2.12 µM (inactive); in the assay on SNB-19 it was 3.97 µM (inactive); with TK-10, 5.66 µM (inactive). The GI50 with UACC-257 is 1.88 µM (inactive).

Take `Cc1c(F)c(NC(=O)CN(C)C)c2c(=O)cc(-c3ccc(NC(=O)CN(C)C)c(F)c3)oc2c1F`: the GI50 in the assay on HCT-15 was 14.5 µM; in the assay on HOP-62, 16.6 µM (inactive); in the assay with HT-29, 14.6 µM (inactive); in the assay with Hs-578T it was 26.9 µM (inactive); in the assay on IGROV-1, 15.7 µM (inactive); with K562, 13.6 µM (inactive). In addition, the GI50 is 13.6 µM (inactive) with MDA-MB-231; 12.6 µM (inactive) with NCI-H226; 17.3 µM (inactive) with NCI-H23; 18.9 µM (inactive) with OVCAR-4; 22.8 µM (inactive) in the assay on OVCAR-5; 17.8 µM (inactive) in the assay with OVCAR-8. The GI50 in the assay on PC-3 is 16 µM (inactive); with SF-539, 17.3 µM (inactive); with SK-MEL-2, 19.2 µM (inactive); with SNB-19, 16 µM (inactive); in the assay on TK-10, 7.57 µM (inactive); with UACC-257, 21.9 µM (inactive).

In the case of `CCOC1=C(c2ccccc2)N2CCCCC2O1` (centres undefined), the GI50 with HCT-15 was 29 µM; with HOP-62, 4.6 µM (inactive); with HT-29, 2.99 µM (inactive); in the assay with Hs-578T it was 6.12 µM (inactive); in the assay on IGROV-1 it was 5.78 µM (inactive); with K562, 2.03 µM (inactive). Also, the GI50 in the assay on MDA-MB-231 is 3.61 µM (inactive); in the assay with NCI-H226 it was 3.42 µM (inactive); in the assay on NCI-H23, 3.29 µM (inactive); with OVCAR-3 it was 3.79 µM (inactive); with OVCAR-5, 3.94 µM (inactive); with OVCAR-8, 3.89 µM (inactive). The GI50 in the assay with PC-3 is 2.61 µM (inactive); in the assay on SF-539, 9.29 µM (inactive); with SK-MEL-2, 2.25 µM (inactive); in the assay with SNB-19 it was 3.76 µM (inactive); in the assay with TK-10, 5.32 µM (inactive); in the assay on UACC-257, 3.46 µM (inactive).

Turning to `CC(=O)C1C(=O)C(=O)N(c2ccc(Br)cc2)C1=O` (centres undefined), the GI50 with HCT-15 was greater than 100 µM; with HOP-62, > 100 µM (inactive); in the assay with HT-29, > 100 µM (inactive); in the assay on Hs-578T, > 100 µM (inactive); with IGROV-1 it was > 100 µM (inactive); in the assay on MDA-MB-231, > 100 µM (inactive). The GI50 with NCI-H226, in the assay with NCI-H23, with OVCAR-3, in the assay with OVCAR-4, with OVCAR-5 and in the assay with OVCAR-8 was > 100 µM (inactive) in each case. Further, the GI50 in the assay on PC-3, in the assay on SF-539, in the assay on SK-MEL-2, in the assay with SNB-19, with TK-10 and in the assay with UACC-257 was > 100 µM (inactive) throughout.

The values above are taken from ChEMBL document CHEMBL1201862, “PubChem BioAssay data set” (2004).
